From patent US20210299657A1, “Method for Development of Microfluidic Assay Device Prototype” (University of Manitoba, priority 2018, published 2021)

What was measured:
[1] = system: endogenous HMGA2 protein levels in MDA-MB-231 cells; experiment: Western blot analysis of HMGA2 protein in MDA-MB-231 cells; assay type: cell-based, human; details: 72 h of treatment; for endogenous HMGA2 protein levels: 10 and 20 μM
Source text: (§1) Interleukin-8 (IL8) (R&D systems, Minneapolis, USA), N-Formylmethionyl-leucyl-phenylalanine (fMLP) (Sigma, Oakville, Canada) and epidermal growth factor (EGF) (Bachem, Torrance, USA) were used as the chemoattractant for neutrophils and breast cancer cells, respectively, in the radial microfluidic chip. Neutrophils were isolated from blood of healthy donors using a negative magnetic isolation kit (STEMCELL, Vancouver, Canada). The human breast cancer cell lines MDA-MB-231 and MCF-7 were obtained from ATCC and cultured in DMEM/F12 plus 5% FBS. MDA-MB-231 cells containing a pcDNA3 human full-size HMGA2 expression construct or an empty vector control, as well as HMGA2-knockout MDA-MB-231 cells transduced with a specific lentiviral CRISPR/Cas9 construct (pLV-U6g-EPCG-HMGA2, HS0000278246; Sigma, Oakville, Canada), were cultured with DMEM/F12 medium plus 5% FBS. We employed a rabbit polyclonal anti-HMGA2 antibody (Cell Signalling Technologies, Whitby, Canada) in Western blot analysis to identify MDA-MB-231 clones with homozygous deletion of HMGA2. The small molecule Lin28 inhibitor 1632 (R&D Systems, Minneapolis, USA) was used at 10 and 20 μM to down-regulate endogenous HMGA2 in MDA-MB-231 cells.
To test this hypothesis and further characterize the role of HMGA2 in chemotaxis of MDA-MB-231, we opted for a pharmacological (LIN28 inhibitor 1632) and CRISPR/Cas9 mediated HMGA2 knockout strategy (FIG. 4B-C). […] Next, we treated MDA-MB-231 with a specific CRISPR/Cas9 lentiviral construct and the homozygous loss of HMGA2 expression in MDA-MB-231 HMGA2 knockout (KO) cells was confirmed by Western blot analysis (FIG. 6C). When exposed to a 100 ng/mL EGF gradient in the radial microfluidic chemotaxis assays, we observed a marked reduction in migration distance in MDA-MB-231 KO clones when compared to parental MDA-MB-231 (FIG. 7C). […] This novel higher throughput device may be a valuable new tool to excel the search for new therapeutic drugs and small molecules that can mitigate chemotaxis in inflammatory and tumor cells. […]

[2] = system: MDA-MB-231 breast cancer cells; experiment: Radial microfluidic chemotaxis assay, MDA-MB-231 cells (migration distance); assay type: cell-based, human; details: for chemotaxis response (migration distance) to the EGF gradient after inhibitor treatment: MDA-MB-231 cells with reduced HMGA2 levels after LIN28 inhibitor, 6 h migration
Source text: (§2) The device pattern was designed using AUTOCAD and printed on a transparent film at high resolution. The SU-8 device master was fabricated on a 3-inch silicon wafer by a two-layer photolithography (10). The first layer defines the cell docking structure that is used to align the cells to one side of the gradient channel prior to migration (FIG. 2). Its thickness should be cell specific, with it being slightly lower than the cell size but not be too low to prevent the cells from crossing, as described herein. We chose ˜2.5 μm for neutrophils and ˜7 μm for breast cancer cells. The Polydimethylsiloxane (PDMS) (Sylgard 184; Dow Corning, Midland, USA) device was fabricated using soft-lithography. Inlets (6 mm diameter), outlets (4 mm diameter), and the cell loading port (2 mm diameter) were punched. The PDMS replica was bonded to a glass slide to seal the channels after plasma treatment. The device channels were coated using rat tail collagen type I (3.8 μg/mL; Advanced BioMatrix, San Diego, USA) for one hour and then blocked by 0.4% BSA in RPMI medium for another hour before the migration experiment.
(§3) Two microliters of cell suspension were added to the cell loading port of each unit. When the cells had collected in the docking area, chemoattractant solution and migration medium were added to the corresponding inlets (FIG. 2). We used 100 nM IL-8 and 100 nM fMLP dissolved in RPMI-1640 with 0.4% BSA neutrophils. For the migration studies with the human breast cancer cells, EGF (10 ng/ml, 50 ng/ml, 100 ng/ml, 200 ng/ml) dissolved in DMEM/ F-12 plus 1% FBS served as chemoattractant.
(§4) To characterize proper gradient generation, FITC-dextran (10 kD; Sigma, Oakville, Canada) was added to the solution containing the chemoattractant and fluorescent images were captured using an inverted fluorescent microscope (Ti-U; Nikon, Mississauga, Canada). Upon adding the chemoattractant solution, the inlets were covered and connected with silicone oil (A12728-22, density=0.963 g/ml; Alfa Aesar, Tewksbury, USA) to balance the pressure difference between the two inlets (FIG. 3A). The microscope stage was enclosed by an environmental control chamber to maintain the temperature at 37° C. during the cell migration experiments. Time-lapse images (10 sec intervals for neutrophils and 3 min intervals for the breast cancer cells) recorded cell migration. The faster migration of neutrophils was recorded for 20 minutes, whereas migration of the breast cancer cells was monitored for 6 hours.
Cell migration and chemotaxis were quantified by calculating the migration distance the cells moved away from the docking site. For MDA-MB-231 experiments, trajectories of representative cells were tracked by manual tracking method using ImageJ. The migration angle ϕ is defined as the angle of the cell displacement vector in relation to the direction of the gradient and was calculated in 12 min intervals. The cosine of ϕ was used to indicate the directionality of cell migration relative to the gradient: 1 indicates cell migration perfectly along the gradient direction; −1 indicates cell migration along the opposite direction of the gradient; a value between 1 and −1 indicates the level of deviation of cell migration from the gradient direction. The cell shape was outlined using ImageJ. Each condition was repeated in at least three independent experiments. For statistical analysis, the two-sample Student's t-test was used to compare different conditions using OriginPro. P<0.05 was considered statistically significant and indicated by an asterisk.

human blood neutrophils = experiment: Radial microfluidic chemotaxis assay, neutrophils (migration distance); assay type: cell-based; details: for neutrophil chemotaxis: 100 nM gradient, 20-minute migration experiment
Source text: as §2
Two microliters of cell suspension were added to the cell loading port of each unit. […]
To characterize proper gradient generation, FITC-dextran (10 kD; Sigma, Oakville, Canada) was added to the solution containing the chemoattractant and fluorescent images were captured using an inverted fluorescent microscope (Ti-U; Nikon, Mississauga, Canada). […] Time-lapse images (10 sec intervals for neutrophils and 3 min intervals for the breast cancer cells) recorded cell migration. The faster migration of neutrophils was recorded for 20 minutes, whereas migration of the breast cancer cells was monitored for 6 hours.
(§5) Cell migration and chemotaxis were quantified by calculating the migration distance the cells moved away from the docking site. […] The migration angle ϕ is defined as the angle of the cell displacement vector in relation to the direction of the gradient and was calculated in 12 min intervals. […]

[3] = system: HMGA2 over-expressing and mock MDA-MB-231 stable transfectants; experiment: Radial microfluidic chemotaxis assay, HMGA2 over-expressing and mock MDA-MB-231 stable transfectants; assay type: cell-based, human
Source text: as §1, §3
as §4, with “The microscope stage was enclosed by an environmental control chamber to maintain the temperature at 37° C. during the cell migration experiments.” left out
as §5

CC(=O)N(C)c1cccc(-c2ccc3nnc(C)n3n2)c1 [LIN28 inhibitor 1632]
presence of HMGA2 protein ([1]; 20 μM): almost completely abolished the presence of HMGA2 | endogenous HMGA2 protein levels [1]: down-regulated endogenous HMGA2 protein levels | endogenous HMGA2 protein levels ([1]; listed as LIN28 inhibitor): verifiable reduction of endogenous HMGA2 levels | chemotaxis response (migration distance) to the EGF gradient after inhibitor treatment [2]: markedly reduced migratory behavior | chemotaxis response (migration distance) to the EGF gradient after inhibitor treatment ([2]; listed as 1632): markedly reduced chemotaxis | chemotaxis response (migration distance) to the EGF gradient after inhibitor treatment ([2]; listed as LIN28 inhibitor): significant reduction in chemotaxis response to the EGF gradient

CSCC[C@H](NC=O)C(=O)N[C@@H](CC(C)C)C(=O)N[C@@H](Cc1ccccc1)C(=O)O [fMLP, N-Formylmethionyl-leucyl-phenylalanine]
chemotaxis response with the fMLP gradient relative to the IL-8 gradient (human blood neutrophils; 100 nM fMLP gradient vs 100 nM IL-8 gradient, 20 minutes): more than 3 fold | neutrophil chemotaxis (human blood neutrophils): stimulated neutrophil chemotaxis

EGF: epidermal growth factor (Bachem), chemoattractant for breast cancer cells (NSDSECPLSHDGYCLHDGVCMYIEALDKYACNCVVGYIGERCQYRDLKWWELR; Epidermal growth factor; UniProt P01133 971-1023, looked up)
migration of MDA-MB-231 cells in EGF gradient ([2]; 200, 100, and 50 ng/ml EGF gradient): optimal and comparable migration | directional migration of MDA-MB-231 cells in EGF gradient ([2]; EGF 10 ng/ml gradient, compared with higher EGF concentrations): directional migration decreased significantly | migration of MDA-MB-231 cells in EGF gradient ([2]; EGF gradient 100 ng/mL, 6 h): actively migrated out of the docking structure towards the EGF gradient | directional migration of MDA-MB-231 cells, low input EGF gradient ([2]; gradient with input EGF concentration 10 ng/mL): significantly increase directional migration | migration of MDA-MB-231 cells in uniform EGF field ([2]; uniform field of EGF 100 ng/mL, 6 h): remained stationary in the docking structure and failed to show a chemotaxis response | migration of transfectants at lowest EGF gradient vs uniform field or medium ([3]; EGF gradient 10 ng/mL vs uniform EGF field 50 ng/mL or normal medium): significantly stronger migration | migration distance of transfectants from the docking site, lowest EGF gradient ([3]; EGF gradient 10 ng/mL, compared with the other EGF gradients): migrate the shortest distance | migration of transfectants in EGF gradients ([3]; EGF gradients 200, 100, 50 and 10 ng/mL, 6 h): enhanced and directional migration with all EGF gradients tested | migration of transfectants in uniform EGF field ([3]; uniform EGF field 50 ng/mL, 6 h): such migratory behaviour was absent

IL-8: Interleukin-8 (R&D systems), chemoattractant for neutrophils
neutrophil chemotaxis (human blood neutrophils): stimulated neutrophil chemotaxis
